Measured values as given in patent publication US20250057158A1 (priority 2021, published 2025).
Read-outs that look alike come from different tables or passages of the source.

Tests used:
[1] = system: Magnaporthe oryzae KI-1113a; type: in vivo; conditions: pot; 5 ml spray (amino acid 0.1%) one day before inoculation; diseased area after 24 h dark plus 4 days; vs untreated group
soybeans = assay: Growth promoting ability, shoot weight of soybeans; type: in vivo, soybean; conditions: untreated group 8.6 g; for shoot weight, soybeans (average): root zone treatment twice at one week intervals (valine 5 ml, 0.1%), two weeks after last treatment
Protocol: (§1) The growth of soybeans and cucumbers was observed by treatment with valine. One week after sowing in pots, root zone treatment of each plant was performed using 5 ml of valine at a concentration of 0.1%. The root zone treatment with valine was performed twice at one week intervals. Two weeks after the last treatment, a shoot of each treatment group was cut and weighed.

[2] = system: Pseudomonas syringae pv. lachrymans; assay: Pot experiment, cucumber bacterial leaf blight (diseased area, control value); type: in vivo; conditions: 5 ml spray (amino acid 0.1%) one day before inoculation, diseased area after 3 days, vs untreated group
Phytophthora sojae = assay: Pot experiment, soybean Phytophthora stem and root rot (diseased area, control value); type: in vivo; conditions: diseased area after 3 days, vs untreated group
Botrytis cinerea = assay: Pot experiment, tomato gray mold (diseased area, control value); type: in vivo; conditions: diseased area after 3 days, vs untreated group
[3] = system: lettuce bacterial soft rot (Pectobacterium carotovorum pv. carotovora); assay: Optimal conditions, two treatments: lettuce bacterial soft rot (disease severity, control value); conditions: treatment 7 days and 1 day before pathogen; for control value, lettuce bacterial soft rot: from disease severity, vs untreated group; for disease severity (score 0 to 5), lettuce bacterial soft rot: 48 hours after pathogen, water control group 4.2
Protocol: (§2) A total of 3 crops (soybean, cucumber, lettuce) were tested against 3 pathogens (soybean Phytophthora stem and root rot, cucumber bacterial leaf blight, lettuce bacterial soft rot), and each plant was prepared in the same manner as Example 5.
(§3) From the disease severity investigated in this manner, a control value was calculated according to the following Equation.

[4] = system: soybean Phytophthora stem and root rot (Phytophthora sojae); conditions: treatment 7 days and 1 day before pathogen; for control value, soybean Phytophthora stem and root rot: from disease severity, vs untreated group; for disease severity (score 0 to 5), soybean Phytophthora stem and root rot: 7 days after pathogen, water control group 4.1
Protocol: as §2, §3

[5] = system: Pseudomonas syringae pv. tomato DC3000 (Pst); type: in vivo; conditions: Arabidopsis thaliana; for disease severity (score 0 to 5): water-treated group 4.6; for induced resistance against Pst (disease severity, statistical significance vs water-treated control): 50 μl of 0.1% amino acid to roots, Pst 7 days later, severity 7 days after pathogen
cucumbers = assay: Growth promoting ability, shoot weight of cucumbers; type: in vivo, cucumber; conditions: untreated group 31 g; for shoot weight, cucumbers (average): root zone treatment twice at one week intervals (valine 5 ml, 0.1%), two weeks after last treatment
Protocol: as §1

[6] = system: Pathogenesis-related protein (PR) 1a promoter GUS fusion construct; assay: Expression of disease resistance marker gene PR1a through GUS activity; type: in vivo, Arabidopsis thaliana; conditions: roots treated with 50 μl; observed 1 Dai to 4 Dai after pathogen treatment
[7] = system: Pectobacterium carotovorum pv. carotovora; assay: Pot experiment, lettuce bacterial soft rot (diseased area, control value); type: in vivo; conditions: diseased area after 1 day, vs untreated group
[8] = system: Soybean Phytophthora stem and root rot; conditions: 7 days after disease treatment, NDVI 0.7 or more = healthy, untreated group 26%
Protocol: The induced resistance against Soybean Phytophthora stem and root rot was investigated using a hyperspectral camera and a visible light band camera. Plant preparation was carried out in the same manner as in Example 6, and 7 days after disease treatment, leaves were picked from the same position in each treatment group, and hyperspectral photographs were taken.
It was quantified by the normalized difference vegetation index (NDVI). The degree of diseased leaves in the entire leaf area was indicated from 0.1 to 0.9 and the number of the corresponding pixels was used. Generally, when the number is 0.7 or more, it is considered a healthy leaf.

Pst pathogen = type: in vivo, Pseudomonas syringae pv. tomato; conditions: Arabidopsis thaliana; 0.1% amino acid; day 6 after Pst
Pcc pathogen = conditions: Arabidopsis thaliana; 0.1% amino acid; day 3 after Pcc
[9] = valine 5 ml, 0.1%, root zone, twice

With CSC(=O)c1cccc2nnsc12 [BTH, benzo(1,2,3)-thiadiazole-7-carbothioic acid S-methyl ester, reference compound] the “control value, rice blast” value [1] was 9%, the “shoot weight, soybeans (average)” value (soybeans) was 7.3 g and the “control value, cucumber bacterial leaf blight” value [2] was 9%. For the same molecule, the “control value, soybean Phytophthora stem and root rot” value (Phytophthora sojae) was 10%, the “control value, tomato gray mold” value (Botrytis cinerea) was 20% and the “control value, lettuce bacterial soft rot” value [3] was 17%. For the same molecule, the “control value, soybean Phytophthora stem and root rot” value [4] was 46%, the “disease severity (score 0 to 5)” value ([5]; Pst, 1 mM BTH) was 3.7 and the “shoot weight, cucumbers (average)” value (cucumbers) was 26 g. For the same molecule, the “PR1a expression (GUS activity in leaf area)” value (shortened to “PR1a expression”) [6] was “GUS was expressed in the leaf area” and the “control value, lettuce bacterial soft rot” value [7] was 10%.

With N[C@@H](CC(=O)O)C(=O)O [aspartic acid] the “induced resistance against Pst (disease severity, statistical significance vs water-treated control)” value [5] was “induced the resistance against Pst”.

In the case of N[C@@H](CCC(=O)O)C(=O)O [glutamic acid], the “induced resistance against Pst (disease severity, statistical significance vs water-treated control)” value [5] is reported as “induced the resistance against Pst”.

For N[C@@H](Cc1c[nH]cn1)C(=O)O [histidine], the “induced resistance against Pst (disease severity, statistical significance vs water-treated control)” value [5] was “induced the resistance against Pst”.

For CC[C@H](C)[C@H](N)C(=O)O [isoleucine], the “control value, rice blast” value [1] was 16%, the “healthy leaves (NDVI, hyperspectral camera)” value [8] was 46% and the “control value, cucumber bacterial leaf blight” value [2] was 12%. The “control value, soybean Phytophthora stem and root rot” value (Phytophthora sojae) was 10%, the “disease severity (score 0 to 5), lettuce bacterial soft rot” value [3] was 3 and the “control value, lettuce bacterial soft rot” value [3] was 29%. For the same molecule, the “disease severity (score 0 to 5), soybean Phytophthora stem and root rot” value [4] was 2.3, the “control value, soybean Phytophthora stem and root rot” value [4] was 44% and the “number of Pst pathogens vs untreated control group” value (Pst pathogen) was “statistically significant reduction in the number of pathogens”. The “number of Pcc pathogen vs untreated control group” value (Pcc pathogen) was “reduction in the number of Pcc pathogen”, the “number of Pcc pathogens vs BTH-treated group” value (“number … vs BTH-treated group” below) (Pcc pathogen) was “reduction in the number of pathogens, as compared to the BTH-treated group” and the “induced resistance against Pst (disease severity, statistical significance vs water-treated control)” value [5] was “induced the resistance against Pst”. For the same molecule, the “PR1a expression” value [6] was “GUS was expressed in the leaf area” and the “control value, lettuce bacterial soft rot” value [7] was 8%.

CC(C)C[C@H](N)C(=O)O [leucine] was tested, and the “induced resistance against Pst (disease severity, statistical significance vs water-treated control)” value [5] was “induced the resistance against Pst”.

O=C(O)[C@@H]1CCCN1 [proline] was tested, and the “number of Pst pathogens vs untreated control group” value (Pst pathogen) was “statistically significant reduction in the number of pathogens”, the “number of Pcc pathogen vs untreated control group” value (Pcc pathogen) was “reduction in the number of Pcc pathogen” and the “number … vs BTH-treated group” value (Pcc pathogen) was “reduction in the number of pathogens, as compared to the BTH-treated group”. The “induced resistance against Pst (disease severity, statistical significance vs water-treated control)” value [5] was “induced the resistance against Pst” and the “PR1a expression” value [6] was “GUS was expressed in the leaf area”.

For CC(C)[C@H](N)C(=O)O [valine], the “control value, rice blast” value [1] was 13%, the “shoot weight, soybeans (average)” value (soybeans) was 11 g and the “shoot weight heavier than untreated group, soybeans” value (soybeans; [9]) was 2.4 g. For the same molecule, the “healthy leaves (NDVI, hyperspectral camera)” value [8] was 60%, the “control value, cucumber bacterial leaf blight” value [2] was 17% and the “control value, soybean Phytophthora stem and root rot” value (Phytophthora sojae) was 15%. For the same molecule, the “disease severity (score 0 to 5), lettuce bacterial soft rot” value [3] was 2.2, the “control value, lettuce bacterial soft rot” value [3] was 48% and the “disease severity (score 0 to 5), soybean Phytophthora stem and root rot” value [4] was 1.1. The “control value, soybean Phytophthora stem and root rot” value [4] was 73%, the “number of Pst pathogens vs untreated control group” value (Pst pathogen) was “statistically significant reduction in the number of pathogens” and the “number of Pcc pathogen vs untreated control group” value (Pcc pathogen) was “reduction in the number of Pcc pathogen”. The “number … vs BTH-treated group” value (Pcc pathogen) was “reduction in the number of pathogens, as compared to the BTH-treated group”, the “disease severity (score 0 to 5)” value ([5]; Pst, 0.1% (0.95 mM) valine) was 2.5 and the “disease severity (score 0 to 5)” value ([5]; Pst, 0.5% valine) was 2.4. For the same molecule, the “overall disease severity in valine-treated groups” value ([5]; Pst, valine 0.5%, 0.1%, 0.05%, 0.01%, 0.005% and 0.001%, vs water-treated group) was “overall disease severity decreased”, the “induced resistance against Pst (disease severity, statistical significance vs water-treated control)” value [5] was “induced the resistance against Pst” and the “shoot weight, cucumbers (average)” value (cucumbers) was 34 g. The “shoot weight heavier than untreated group, cucumbers” value (cucumbers; [9]) was 3 g, the “PR1a expression” value [6] was “GUS was expressed in the leaf area” and the “control value, lettuce bacterial soft rot” value [7] was 13%.
